The target of the experiment is T1, Met receptor (EGFR/Met chimeric cells, EMR) (Homo sapiens, UniProt P08581).
T1 construct: expressed in transfected cells; the other entry of the earlier key: EGFR (P00533, Epidermal growth factor receptor)
The experiment in a line: Met Autophosphorylation Assay. The experiment is classed as biochemical. Conditions: protocol P.130. The procedure, abridged: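 Met phosphorylation was measured by capture ELISA. Lysates (90 μg/100 μl, HNTG plus 1 mM PMSF) from transiently transfected EGFR/Met chimera (EMR) cells were bound for 60 min at room temperature to wells holding rabbit anti-Met (C-28) on goat anti-rabbit coat. Phosphotyrosine was the read-out.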

Molecules are shown by their SMILES.

T1 sequence (P08581 with tags, fused parts or gaps): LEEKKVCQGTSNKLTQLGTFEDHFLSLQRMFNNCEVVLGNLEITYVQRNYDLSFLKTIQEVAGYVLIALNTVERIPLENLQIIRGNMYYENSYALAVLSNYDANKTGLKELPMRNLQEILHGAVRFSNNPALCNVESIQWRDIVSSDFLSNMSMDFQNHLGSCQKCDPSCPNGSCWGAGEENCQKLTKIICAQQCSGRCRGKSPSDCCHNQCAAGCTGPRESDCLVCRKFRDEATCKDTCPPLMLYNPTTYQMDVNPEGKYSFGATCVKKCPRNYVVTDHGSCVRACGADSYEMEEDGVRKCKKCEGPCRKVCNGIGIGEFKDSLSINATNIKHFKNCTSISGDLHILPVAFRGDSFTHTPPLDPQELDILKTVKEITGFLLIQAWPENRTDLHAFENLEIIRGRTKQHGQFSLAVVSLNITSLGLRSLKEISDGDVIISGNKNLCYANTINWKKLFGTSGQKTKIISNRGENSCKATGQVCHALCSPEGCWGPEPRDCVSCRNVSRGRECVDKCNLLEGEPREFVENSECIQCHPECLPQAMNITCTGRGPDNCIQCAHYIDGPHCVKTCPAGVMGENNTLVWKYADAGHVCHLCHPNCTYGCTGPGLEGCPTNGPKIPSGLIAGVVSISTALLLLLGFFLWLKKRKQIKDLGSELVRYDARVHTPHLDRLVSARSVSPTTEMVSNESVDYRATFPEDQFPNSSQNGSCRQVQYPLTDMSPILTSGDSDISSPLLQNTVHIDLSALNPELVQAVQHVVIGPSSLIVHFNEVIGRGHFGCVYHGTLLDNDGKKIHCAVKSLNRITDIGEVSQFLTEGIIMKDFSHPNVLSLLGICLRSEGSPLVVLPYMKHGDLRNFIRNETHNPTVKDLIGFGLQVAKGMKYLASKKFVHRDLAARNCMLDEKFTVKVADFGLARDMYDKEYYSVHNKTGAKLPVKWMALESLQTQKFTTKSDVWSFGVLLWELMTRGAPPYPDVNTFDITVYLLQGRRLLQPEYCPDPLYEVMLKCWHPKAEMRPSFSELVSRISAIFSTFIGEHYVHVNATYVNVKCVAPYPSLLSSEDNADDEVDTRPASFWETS

Take `O=C1Nc2ccc(CCCl)cc2C1=Cc1cccc(O)c1O` [10738/G06]: the “Met Kinase % Inhibition (P.130)” value worked out at 86.5%.

Consider `O=C1Nc2ccc(CCCl)cc2C1=Cc1cc(O)cc(O)c1` [10738/G07], for which the “Met Kinase % Inhibition (P.130)” value was found to be 40.4%.

Consider `O=C1Nc2ccc(CCCl)cc2C1=Cc1ccc(Cl)c(Cl)c1` [10738/G08], for which the “Met Kinase % Inhibition (P.130)” value is 36.8%.

With `COc1ccccc1C=C1C(=O)Nc2ccc(CCCl)cc21` [10738/G09], the “Met Kinase % Inhibition (P.130)” value was 16.9%.

For the compound `CC(C)c1ccc(C=C2C(=O)Nc3ccc(CCCl)cc32)cc1` [10738/G10], the “Met Kinase % Inhibition (P.130)” value came to 12.5%.

Turning to `CCCOc1ccc(C=C2C(=O)Nc3ccc(CCCl)cc32)cc1` [10738/G11], the “Met Kinase % Inhibition (P.130)” value amounted to 22.2%.

With `Cc1ccc(Oc2cccc(C=C3C(=O)Nc4c(Br)cc(Br)c(C)c43)c2)cc1` [10738/H02], the “Met Kinase % Inhibition (P.130)” value stood at 35.3%.

Turning to `Cc1c(Br)cc(Br)c2c1C(=Cc1cccc(Oc3ccc(Cl)c(Cl)c3)c1)C(=O)N2` [10738/H03], the “Met Kinase % Inhibition (P.130)” value came to 29.5%.

On to `COc1ccc(C=C2C(=O)Nc3c(Br)cc(Br)c(C)c32)cc1O` [10738/H04], for which the “Met Kinase % Inhibition (P.130)” value was found to be 72.9%.

As for `Cc1c(Br)cc(Br)c2c1C(=Cc1cc(O)ccc1[N+](=O)[O-])C(=O)N2` [10738/H05], the “Met Kinase % Inhibition (P.130)” value stood at 73.6%.

Turning to `Cc1c(Br)cc(Br)c2c1C(=Cc1cccc(O)c1O)C(=O)N2` [10738/H06], the “Met Kinase % Inhibition (P.130)” value was determined as 93.8%.

Source of the values: patent publication US20020026053A1, “Novel 3-(substituted) -2- indolinones compounds and use thereof as inhibitors of protein kinase activity” (priority 1997, published 2002).
